These results are taken from US7846925B2, “Azolidinone-vinyl fused-benzene derivatives” (Merck Serono SA, priority 2002, dated 2010).

Assay [1] deals with Human recombinant GST-PI3Kγ (Homo sapiens, UniProt P48736). Nature of the assay: High Throughput PI3K Lipid Kinase Assay (scintillation proximity assay). In kind it is biochemical. As to the method: a) High Throughput PI3K Lipid Kinase Assay (Binding Assay):
The assay combines the scintillation proximity assay technology (SPA, Amersham) with the capacity of neomycin (a polycationic antibiotic) to bind phospholipids with high affinity and specificity. The Scintillation Proximity Assay is based on the properties of weakly emitting isotopes (such as ^3H, ^125I, ^33P). Coating SPA beads with neomycin allows the detection of phosphorylated lipid substrates after incubation with recombinant PI3K and radioactive ATP in the same well, by capturing the radioactive phospholipids to the SPA beads through their specific binding to neomycin.
To a 384 wells MTP containing 5 μl of the test compound of formula (I) (solubilized in 6% DMSO; to yield a concentration of 100, 30, 10, 3, 1, 0.3, 0.1, 0.03, 0.01, 0.001 μM of the test compound), the following assay components are added. 1) 5 μl (58 ng) of Human recombinant GST-PI3Kγ (in Hepes 40 mM, pH 7.4, DTT 1 mM and ethyleneglycol 5%) 2) 10 μl of lipid micelles and 3) 10 μl of Kinase buffer ([^33P]γATP 45 μM/60 nCi, MgCl2 30 mM, DTT 1 mM, β-Glycerophosphate 1 mM, Na3VO4 100 μM, Na Cholate 0.3%, in Hepes 40 mM, pH 7.4). After incubation at room temperature for 180 minutes, with gentle agitation, the reaction is stopped by addition of 60 μl of a solution containing 100 μg of neomycin-coated PVT SPA beads in PBS containing ATP 10 mM and EDTA 5 mM. The assay is further incubated at room temperature for 60 minutes with gentle agitation to allow binding of phospholipids to neomycin-SPA beads. After precipitation of the neomycin-coated PVT SPA beads for 5 minutes at 1500×g, radioactive PtdIns(3)P is quantified by scintillation counting in a Wallac MicroBeta™ plate counter.
The values indicated in respect of PI3Kγ refer to the IC50 (μM), i.e. the amount necessary to achieve 50% inhibition of said target. Said values show a considerable potency of the azolidinone-vinyl fused-benzene compounds with regard to PI3Kγ.

Assay [2] relates to C5a-mediated AKT phosphorylation. Nature of the assay: Cell based ELISA: Akt/PKB phosphorylation in Raw 264-7 macrophages after stimulation with C5a. The settings on record: Mus musculus, RAW264.7, compound at 1 μM, 50 nM C5a, read-out: percentage of inhibition of C5a-mediated AKT phosphorylation. As to the method:
b) Cell Based ELISA to Monitor PI3K Inhibition:
Measurement of Akt/PKB phosphorylation in macrophages after stimulation with C5a: Raw 264: Raw 264-7 macrophages (cultured in DMEM-F12 medium containing 10% Fetal Calf serum and antibiotics) are plated at 20'000 cells/well in a 96 MTP 24 h before cell stimulation. Previous to the stimulation with 50 nM of Complement 5a (C5a; which is a well known chemokine which stimulates the used cells) during 5 minutes, Cells are serum starved for 2 h, and pretreated with inhibitors for 20 minutes. After stimulation cells are fixed in 4% formaldehyde for 20 minutes and washed 3 times in PBS containing 1% Triton X-100 (PBS/Triton). Endogenous peroxidase is blocked by a 20 minutes incubation in 0.6% H2O2 and 0.1% Sodium Azide in PBS/Triton and washed 3 times in PBS/Triton. Cells are then blocked by 60 minutes incubation with 10% fetal calf serum in PBS/Triton. Next, phosphorylated Atk/PKB is detected by an overnight incubation at 4° C. with first antibody (anti phospho Serine 473 Akt 1HC, Cell Signaling) diluted 800-fold in PBS/Triton, containing 5% bovine serum albumin (BSA). After 3 washes in PBS/Triton, cells are incubated for 60 minutes with a peroxidase conjugated goat-anti-rabbit antibody (1/400 dilution in PBS/Triton, containing 5% BSA), washed 3 times in PBS/Triton, and 2 times in PBS and further incubated in 100 μl of substrate reagent solution (R&D) for 20 minutes.
The reaction is stopped by addition of 50 μl of 1 M H2SO4 and absorbance is read at 450 nm.
The values indicated reflect the percentage of inhibition of AKT phosphorylation as compared to basal level. Said values show a clear effect of the azolidinone-vinyl fused-benzene compounds on the activation of AKT phosphorylation in macrophages.

The conditions of assay [3]: in vivo; cited from earlier work.
A further assay deals with Class I PI3-kinases. The settings on record: read-out: IC50 against each of these PI3-kinases; cited from earlier work.
The subject of a further assay is neutrophil. The settings on record: cited from earlier work.
Another assay deals with CK2 protein kinase (Homo sapiens, UniProt P68400). To be noted: cited from earlier work.
A further assay concerns phospholipases. The settings on record: cited from earlier work.

The structures appear in SMILES notation.

Chain of Human recombinant GST-PI3Kγ (P48736 whole entry): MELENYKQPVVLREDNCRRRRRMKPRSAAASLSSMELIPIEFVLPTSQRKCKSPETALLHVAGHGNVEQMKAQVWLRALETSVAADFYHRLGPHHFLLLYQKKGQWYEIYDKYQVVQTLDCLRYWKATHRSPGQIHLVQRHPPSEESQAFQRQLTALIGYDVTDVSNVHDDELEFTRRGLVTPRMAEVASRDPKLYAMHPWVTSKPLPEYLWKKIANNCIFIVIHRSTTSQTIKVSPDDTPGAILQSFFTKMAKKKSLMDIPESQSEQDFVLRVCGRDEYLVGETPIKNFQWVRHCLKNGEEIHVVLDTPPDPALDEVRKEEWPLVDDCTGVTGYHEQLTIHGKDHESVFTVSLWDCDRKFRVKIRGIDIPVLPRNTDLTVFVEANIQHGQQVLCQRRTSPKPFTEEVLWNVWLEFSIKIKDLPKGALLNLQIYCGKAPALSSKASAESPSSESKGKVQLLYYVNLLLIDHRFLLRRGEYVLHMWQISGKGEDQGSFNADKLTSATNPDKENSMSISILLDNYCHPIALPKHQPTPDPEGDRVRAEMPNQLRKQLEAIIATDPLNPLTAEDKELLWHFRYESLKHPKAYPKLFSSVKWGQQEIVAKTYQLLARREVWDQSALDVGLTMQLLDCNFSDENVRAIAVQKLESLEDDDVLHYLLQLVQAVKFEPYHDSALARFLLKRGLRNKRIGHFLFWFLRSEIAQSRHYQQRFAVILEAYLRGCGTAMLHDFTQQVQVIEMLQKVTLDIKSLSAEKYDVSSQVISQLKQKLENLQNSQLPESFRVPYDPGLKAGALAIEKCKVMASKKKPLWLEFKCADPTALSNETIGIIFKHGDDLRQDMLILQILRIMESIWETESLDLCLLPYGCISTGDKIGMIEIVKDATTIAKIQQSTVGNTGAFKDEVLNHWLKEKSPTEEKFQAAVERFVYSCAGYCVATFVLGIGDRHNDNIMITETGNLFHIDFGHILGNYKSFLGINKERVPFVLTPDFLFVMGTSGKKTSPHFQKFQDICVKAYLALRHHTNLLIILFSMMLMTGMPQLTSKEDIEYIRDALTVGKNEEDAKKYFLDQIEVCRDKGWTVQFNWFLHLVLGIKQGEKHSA
Chain of CK2 protein kinase (P68400 whole entry): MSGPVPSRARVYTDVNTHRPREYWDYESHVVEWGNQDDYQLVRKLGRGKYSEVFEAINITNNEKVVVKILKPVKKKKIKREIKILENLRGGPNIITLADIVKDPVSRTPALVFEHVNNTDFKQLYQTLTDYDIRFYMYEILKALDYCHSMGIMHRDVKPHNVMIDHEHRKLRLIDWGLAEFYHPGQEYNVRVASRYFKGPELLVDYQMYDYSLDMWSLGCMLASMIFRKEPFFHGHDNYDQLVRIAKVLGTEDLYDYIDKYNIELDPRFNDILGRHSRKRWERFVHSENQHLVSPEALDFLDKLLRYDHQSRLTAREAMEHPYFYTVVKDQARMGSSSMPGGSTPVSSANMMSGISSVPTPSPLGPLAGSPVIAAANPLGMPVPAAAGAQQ

Usually IC50 stands for the concentration that inhibits the measured activity by half. As to `O=C1NC(=O)/C(=C/c2ccc3c(c2)N(Cc2ccccc2)C(=O)CO3)S1` [Example 103, 5-(4-Benzyl-3-oxo-3,4-dihydro-2H-benzo[1,4]oxazin-6-ylmethylene)-thiazolidine-2,4-dione], in assay [1], the IC50 was under 1000 nM.

For orientation: inhibition means the drop in the measured response relative to a control, in per cent. Turning to `N=C1NC(=O)/C(=C/c2ccc3nccnc3c2)S1` [Example 66, 2-Imino-5-quinoxalin-6-ylmethylene-thiazolidin-4-one], the inhibition at 1 µM in assay [2] was about 100%. Also, the IC50 in assay [1] was under 1000 nM.

With `O=C1NC(=O)/C(=C/c2ccc3occ(/C=C/C(=O)N4CCCCC4)c3c2)S1` [Example 73, 5-[3-(3-Oxo-3-piperidin-1-yl-propenyl)-benzofuran-5-ylmethylene]-thiazolidine-2,4-dione], the IC50 in assay [1] is under 1000 nM.

As to `O=C1NC(=O)C(=Cc2ccc3ncnc(N4CCCCC4)c3c2)S1` [Example 19, 5-[(4-piperidin-1-ylquinazolin-6-yl)methylene]-1,3-thiazolidine-2,4-dione], the inhibition at 1 µM in assay [2] was about 100%.

With `CC(C)(C)c1cc(/C=C2\SC(=N)NC2=O)cc2c1OCC2(C)C` [JA], the “activity in a paw swelling assay” value in assay [3] was “inactive”.

Regarding `N=C1NC(=O)/C(=C/c2ccc3ncnc(N4CCCCC4)c3c2)S1` [Example 41, 2-Imino-5-(4-piperidine-quinazolin-6-ylmethylene)-thiazolidin-4-one], the IC50 in assay [1] is under 1000 nM.

As for `O=C1NC(=O)/C(=C/c2ccc3c(c2)OCO3)S1` [Example 1, 5-(1,3-benzodioxol-5-ylmethylene)-1,3-thiazolidine-2,4-dione], in assay [2], the inhibition at 1 µM was about 100%.

Regarding `O=c1cc(N2CCOCC2)oc2c(-c3ccccc3)cccc12` [LY294002], the IC50 in the assay on Class I PI3-kinases was 15000 to 20000 nM; on CK2 protein kinase, 5000 to 10000 nM. Besides, in the assay on neutrophil, the neutrophil migration entry is listed as “block”. Besides, in the assay on neutrophil, the superoxide release result is “block”. Also, the “inhibitory activity on phospholipases” value with phospholipases is “some inhibitory activity”.

`COc1ccccc1Cn1cnc2ccc(C=C3SC(=O)NC3=O)cc21` [Example 61, 5-{[1-(2-methoxybenzyl)-1H-benzimidazol-6-yl]methylene}-1,3-thiazolidine-2,4-dione]: in assay [1], the IC50 is under 1000 nM.

Consider `COC(=O)c1cc2ccc(/C=C3\SC(=O)NC3=O)cc2o1` [Example 110, 5-(2-Carboxymethyl-benzofuran-6-ylmethylene)-thiazolidine-2,4-dione], for which the IC50 in assay [1] was under 1000 nM.

Turning to `O=C1NC(=O)/C(=C/c2ccc3nsnc3c2)S1` [Example 107, 5-Benzo[1,2,5]thiadiazol-5-ylmethylene-thiazolidine-2,4-ione], the inhibition at 1 µM in assay [2] is about 100%. Moreover, the IC50 in assay [1] is under 1000 nM.
